# Where a name gives a salt, the structure may show the parent alone.
# What was measured:
# PARP-1 = target: T1, PARP-1 (Homo sapiens, UniProt P09874); test: PARP-1 autoparsylation assay (HTRF); assay type: biochemical; conditions: His-tagged Parp-1, autoparsylation HTRF
# T1 construct: purchased Enzo Life Sciences GmbH, Lörrach, Germany
# Summary of the method: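 HTRF emission ratio reports biotin-ADP-ribose self-transfer onto His-tagged PARP-1, with biotinylated NAD/NAD as co-substrate, sensed via cryptate anti-His and Xlent-streptavidin.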
# TNKS1 = target: T2, TNKS1 (Homo sapiens, UniProt O95271); test: TNKS1 activity ELISA (autoparsylation assay); assay type: biochemical; conditions: GST-tagged Tnks-1 (1023-1327 aa)
# T2 construct: GST-tagged Tnks-1 (1023-1327 aa, prepared in-house); made in house
# Summary of the method: (§1)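 Autoparsylation ELISA: biotinylated NAD serves as co-substrate for plate-bound GST-TNKS1/TNKS2, incubated with test compounds. Readout is HRP luminescence after streptavidin-HRP binding, referenced to the no-inhibitor reaction, from which IC50 values are derived.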
# TNKS2 = target: T3, TNKS2 (Homo sapiens, UniProt Q9H2K2); test: TNKS2 activity ELISA (autoparsylation assay); assay type: biochemical; conditions: GST-tagged Tnks-2 (873-1166 aa); read-out: IC50 [M] TNKS2 ELISA
# T3 construct: GST-tagged Tnks-2 (873-1166 aa, prepared in-house); made in house
# Summary of the method: as §1
# Tankyrases = conditions: read-out: EC50 [M] TNKS cellular assay; DLD1 cells, 24 hours, Axin2 increase
# Experimental: Measurement of Cellular Inhibition of Tankyrase
# Cells of the colon carcinoma cell line DLD1 are plated in 96 well plates with 1.5×10^4 cells per well. Next day, cells are treated with a serial dilution of test compound in seven steps as triplicates with a final DMSO concentration of 0.3%. […] The amount of isolated Axin2 protein is determined in a Luminex^200 machine (Luminex Corporation) according to the manufacturer's instruction by counting 100 events per well. […] As controls cells are treated with solvent alone (neutral control) and with a Tankyrase reference inhibitor IWR-2 (3E−06 M) which refers as control for maximum increase of Axin2. For analysis, the obtained data are normalized against the untreated solvent control and fitted for determination of the EC50 values using the Assay Explorer software (Accelrys).
# T2 sequence (O95271 1023-1327): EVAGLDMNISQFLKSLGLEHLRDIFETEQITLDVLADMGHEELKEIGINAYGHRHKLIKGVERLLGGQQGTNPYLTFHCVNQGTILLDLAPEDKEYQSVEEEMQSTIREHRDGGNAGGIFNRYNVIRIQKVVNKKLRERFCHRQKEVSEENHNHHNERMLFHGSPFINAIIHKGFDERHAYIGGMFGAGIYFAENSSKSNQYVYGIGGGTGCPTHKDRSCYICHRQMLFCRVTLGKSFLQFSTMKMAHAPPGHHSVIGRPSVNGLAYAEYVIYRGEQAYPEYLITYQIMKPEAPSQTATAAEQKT
# T3 sequence (Q9H2K2 873-1166): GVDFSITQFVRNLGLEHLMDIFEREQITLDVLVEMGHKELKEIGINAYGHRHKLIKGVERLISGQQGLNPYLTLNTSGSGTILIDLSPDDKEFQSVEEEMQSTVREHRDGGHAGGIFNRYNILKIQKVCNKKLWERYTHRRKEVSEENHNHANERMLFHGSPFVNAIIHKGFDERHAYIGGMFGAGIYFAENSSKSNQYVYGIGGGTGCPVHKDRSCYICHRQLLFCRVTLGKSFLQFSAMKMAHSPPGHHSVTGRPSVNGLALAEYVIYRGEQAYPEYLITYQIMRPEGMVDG
# T1 sequence (P09874 whole entry): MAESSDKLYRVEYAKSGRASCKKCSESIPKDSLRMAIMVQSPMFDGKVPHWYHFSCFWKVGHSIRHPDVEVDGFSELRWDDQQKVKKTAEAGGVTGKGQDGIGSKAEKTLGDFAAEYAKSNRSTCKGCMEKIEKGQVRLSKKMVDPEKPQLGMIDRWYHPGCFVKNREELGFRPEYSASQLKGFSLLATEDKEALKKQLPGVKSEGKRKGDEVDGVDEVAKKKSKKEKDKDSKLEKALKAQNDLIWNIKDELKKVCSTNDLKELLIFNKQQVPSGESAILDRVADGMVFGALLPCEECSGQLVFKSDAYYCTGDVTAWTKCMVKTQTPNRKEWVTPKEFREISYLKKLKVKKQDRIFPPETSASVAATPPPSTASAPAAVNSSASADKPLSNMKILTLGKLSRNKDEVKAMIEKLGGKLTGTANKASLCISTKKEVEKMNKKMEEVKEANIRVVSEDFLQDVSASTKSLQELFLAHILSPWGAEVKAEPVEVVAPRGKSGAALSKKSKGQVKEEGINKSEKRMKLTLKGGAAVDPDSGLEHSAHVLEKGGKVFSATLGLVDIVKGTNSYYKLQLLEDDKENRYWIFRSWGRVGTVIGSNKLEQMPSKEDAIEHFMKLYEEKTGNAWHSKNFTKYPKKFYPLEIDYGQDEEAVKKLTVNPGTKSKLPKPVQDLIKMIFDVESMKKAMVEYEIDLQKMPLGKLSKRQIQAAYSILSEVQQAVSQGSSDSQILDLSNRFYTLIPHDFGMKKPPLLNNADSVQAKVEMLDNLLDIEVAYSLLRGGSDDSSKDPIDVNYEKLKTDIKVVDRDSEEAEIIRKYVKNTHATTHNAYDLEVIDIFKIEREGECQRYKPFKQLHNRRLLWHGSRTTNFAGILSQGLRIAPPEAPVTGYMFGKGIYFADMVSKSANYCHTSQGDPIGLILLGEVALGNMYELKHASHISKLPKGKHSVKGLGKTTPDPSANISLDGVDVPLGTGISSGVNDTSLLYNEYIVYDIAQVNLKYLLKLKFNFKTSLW
Compound,IC50 (PARP-1),IC50 (TNKS1),IC50 (TNKS2),EC50 (Tankyrases)
"Cc1cc2c(=O)[nH]c(CCCC(=O)N3CCC(C(=O)c4cnn(C(C)C)c4)CC3)cn2n1 [Compound C217, 6-{4-[4-(1-Isopropyl-1H-pyrazole-4-carbonyl)-piperidin-1-yl]-4-oxo-butyl}-2-methyl-5H-pyrazolo[1,5-a]pyrazin-4-one]",6.6 µM,2 nM,2.7e-09 M,3e-08 M
"CCn1cc(C(=O)C2CCN(C(=O)CCCc3nc4c(C)csc4c(=O)[nH]3)CC2)cn1 [Compound C224, 2-{4-[4-(1-Ethyl-1H-pyrazole-4-carbonyl)-piperidin-1-yl]-4-oxo-butyl}-7-methyl-3H-thieno[3,2-d]pyrimidin-4-one trifluoroacetate]",3.1 µM,0.87 nM,7.1e-10 M,1.8e-08 M
"Cc1nc(CCCC(=O)N2CCC(C(=O)c3ccc(F)cc3)CC2)[nH]c(=O)c1C [Compound C240, 2-{4-[4-(4-Fluoro-benzoyl)-piperidin-1-yl]-4-oxo-butyl}-5,6-dimethyl-3H-pyrimidin-4-one]",19 µM,14 nM,5.3e-09 M,5.8e-07 M
"Cn1ncc2c(=O)[nH]c(CCCC(=O)N3CCC(Oc4ccc(C#N)cc4)CC3)nc21 [Compound C47, 4-{1-[4-(1-Methyl-4-oxo-4,5-dihydro-1H-pyrazolo[3,4-d]pyrimidin-6-yl)-butyryl]-piperidin-4-yloxy}-benzonitrile]",4.4 µM,110 nM,4.1e-08 M,4.5e-07 M
"Nc1ncc(C2CCN(C(=O)CCCc3nc4c(c(=O)[nH]3)COCC4)CC2)cc1-c1ncccn1 [Compound C195, 2-[4-(6-Amino-5-pyrimidin-2-yl-3′,4′,5′,6′-tetrahydro-2′H-[3,4′]bipyridinyl-1′-yl)-4-oxo-butyl]-3,5,7,8-tetrahydro-pyrano[4,3-d]pyrimidin-4-one]",3.3 µM,2.1 nM,6.8e-10 M,3.5e-08 M
"COc1ccc(C(=O)C2CCN(C(=O)CCCc3nn4c(C)ccc4c(=O)[nH]3)CC2)cc1F [Compound C147, 2-{4-[4-(3-Fluoro-4-methoxy-benzoyl)-piperidin-1-yl]-4-oxo-butyl}-7-methyl-3H-pyrrolo[2,1-f][1,2,4]triazin-4-one]",0.37 µM,< 0.1 nM,< 1e-10 M,8.1e-10 M
"COc1ccc(C(=O)C2CN(C(=O)CCCc3cn4cccc4c(=O)[nH]3)C2)cc1 [Compound D1, 3-{4-[3-(4-Methoxy-benzoyl)-azetidin-1-yl]-4-oxo-butyl}-2H-pyrrolo[1,2-a]pyrazin-1-one]",3.1 µM,120 nM,8.5e-08 M,5.4e-07 M
"Cn1ncc2c(=O)[nH]c(CCCC(=O)N3CCC(C(=O)c4ccc(C(C)(F)F)cc4)CC3)nc21 [Compound C245, 6-(4-{4-[4-(1,1-Difluoro-ethyl)-benzoyl]-piperidin-1-yl}-4-oxo-butyl)-1-methyl-1,5-dihydro-pyrazolo[3,4-d]pyrimidin-4-one]",5.8 µM,0.41 nM,1.7e-10 M,4.8e-09 M
"COc1ccc(C(=O)C2CCN(C(=O)CCCc3nn4cc(F)cc4c(=O)[nH]3)CC2)cn1 [Compound C170, 6-Fluoro-2-{4-[4-(6-methoxy-pyridine-3-carbonyl)-piperidin-1-yl]-4-oxo-butyl}-3H-pyrrolo[2,1-f][1,2,4]triazin-4-one]",2.8 µM,0.67 nM,9.9e-10 M,1.9e-08 M
"Cn1ncc2c(=O)[nH]c(CCCC(=O)N3CCC(C(=O)c4ccc(C(C)(C)O)cc4)CC3)nc21 [Compound C50, 6-{4-{4-[4-(1-Hydroxy-1-methyl-ethyl)benzoyl]-1-piperidyl}-4-oxo-butyl}-1-methyl-5H-pyrazolo[3,4-d]pyrimidin-4-one]",23 µM,11 nM,4e-09 M,3.8e-07 M
"COc1ccc(C(=O)C2CCN(C(=O)CCCc3cn4c(C)ccc4c(=O)[nH]3)CC2)cc1C [Compound C3, 3-{4-[4-(4-Methoxy-3-methyl-benzoyl)-piperidin-1-yl]-4-oxo-butyl}-6-methyl-2H-pyrrolo[1,2-a]pyrazin-1-one]",0.82 µM,0.14 nM,1.7e-10 M,2.9e-10 M
"CC(C)n1cc(C(=O)C2CCN(C(=O)CCCc3nn4cccc4c(=O)[nH]3)CC2)cn1 [Compound C219, 2-{4-[4-(1-Isopropyl-1H-pyrazole-4-carbonyl)-piperidin-1-yl]-4-oxo-butyl}-3H-pyrrolo[2,1-f][1,2,4]triazin-4-one]",25 µM,2 nM,1.2e-09 M,2.4e-08 M
"Cc1scc2c(=O)[nH]c(CCCC(=O)N3CCC(C(=O)c4cnn(C(C)C)c4)CC3)nc12 [Compound C226, 2-{4-[4-(1-Isopropyl-1H-pyrazole-4-carbonyl)-piperidin-1-yl]-4-oxo-butyl}-7-methyl-3H-thieno[3,4-d]pyrimidin-4-one]",1.8 µM,1.6 nM,9.5e-10 M,2.5e-08 M
"N#Cc1ccc(OC2CCN(C(=O)CCCc3cn4cccc4c(=O)[nH]3)CC2)cc1 [Compound C5, 4-{1-[4-(1-Oxo-1,2-dihydro-pyrrolo[1,2-a]pyrazin-3-yl)-butyryl]-piperidin-4-yloxy}-benzonitrile]",4.3 µM,0.13 nM,8.8e-09 M,1.2e-07 M
"Cc1csc2c(=O)[nH]c(CCCC(=O)N3CCC(c4nnc(-c5ccccc5)o4)CC3)nc12 [Compound C54, 7-Methyl-2-{4-oxo-4-[4-(5-phenyl-[1,3,4]oxadiazol-2-yl)-piperidin-1-yl]-butyl}-3H-thieno[3,2-d]pyrimidin-4-one]",1.5 µM,4.7 nM,1.8e-09 M,1.4e-08 M
"Cc1ccc2c(=O)[nH]c(CCCC(=O)N3CCC(C(=O)c4cnn(C)c4)CC3)cn12 [Compound C62, 6-Methyl-3-{4-[4-(1-methyl-1H-pyrazole-4-carbonyl)-piperidin-1-yl]-4-oxo-butyl}-2H-pyrrolo[1,2-a]pyrazin-1-one]",0.8 µM,0.16 nM,1.2e-10 M,3.5e-09 M
"N#Cc1cc(C2CCN(C(=O)CCCc3nc4c(c(=O)[nH]3)CCCC4)CC2)cnc1N [Compound C232, 6-Amino-1′-[4-(4-oxo-3,4,5,6,7,8-hexahydro-quinazolin-2-yl)-butyryl]-1′,2′,3′,4′,5′,6′-hexahydro-[3,4′]bipyridinyl-5-carbonitrile]",2.7 µM,20 nM,5.7e-09 M,5.6e-08 M
"COc1ccc(C(=O)C2CCN(C(=O)CCCc3nc4c(C)scc4c(=O)[nH]3)CC2)cc1F [Compound C113, 2-{4-[4-(3-Fluoro-4-methoxy-benzoyl)-piperidin-1-yl]-4-oxo-butyl}-7-methyl-3H-thieno[3,4-d]pyrimidin-4-one]",29 µM,0.38 nM,2.4e-10 M,2.6e-09 M
"Nc1ncc(C2CCN(C(=O)CCCc3nn4cc(F)cc4c(=O)[nH]3)CC2)cc1-c1ncccn1 [Compound C172, 2-[4-(6-Amino-5-pyrimidin-2-yl-3′,4′,5′,6′-tetrahydro-2′H-[3,4′]bipyridinyl-1′-yl)-4-oxo-butyl]-6-fluoro-3H-pyrrolo[2,1-f][1,2,4]triazin-4-one]",2.5 µM,0.61 nM,5.3e-10 M,6.8e-09 M
"O=C(CCCc1cn2cccc2c(=O)[nH]1)N1CCC(c2nnc(-c3ccccc3)o2)CC1 [Compound C6, 3-{4-Oxo-4-[4-(5-phenyl-[1,3,4]oxadiazol-2-yl)-piperidin-1-yl]-butyl}-2H-pyrrolo[1,2-a]pyrazin-1-one]",3.7 µM,1.9 nM,1.3e-09 M,2.8e-08 M
"O=C(c1ccc(Cl)cc1)C1CCN(C(=O)CCCc2nn3cccc3c(=O)[nH]2)CC1 [Compound C237, 2-{4-[4-(4-Chloro-benzoyl)-piperidin-1-yl]-4-oxo-butyl}-3H-pyrrolo[2,1-f][1,2,4]triazin-4-one]",10 µM,0.66 nM,3e-10 M,1e-08 M
"O=C(c1ccc(F)cc1)C1CCN(C(=O)CCCc2nn3cccc3c(=O)[nH]2)CC1 [Compound C142, 2-{4-[4-(4-Fluoro-benzoyl)-piperidin-1-yl]-4-oxo-butyl}-3H-pyrrolo[2,1-f][1,2,4]triazin-4-one]",7.2 µM,14 nM,1.4e-08 M,2e-08 M
"Cc1scc2c(=O)[nH]c(CCCC(=O)N3CCC(c4nnc(-c5ccccc5)o4)CC3)nc12 [Compound C117, 7-Methyl-2-{4-oxo-4-[4-(5-phenyl-[1,3,4]oxadiazol-2-yl)-piperidin-1-yl]-butyl}-3H-thieno[3,4-d]pyrimidin-4-one]",0.82 µM,8.2 nM,5.7e-09 M,1.3e-07 M
"Cn1ccc2c(=O)[nH]c(CCCC(=O)N3CCC(C(=O)c4ccc(F)cc4)CC3)nc21 [Compound C186, 2-{4-[4-(4-Fluoro-benzoyl)-piperidin-1-yl]-4-oxo-butyl}-7-methyl-3,7-dihydro-pyrrolo[2,3-d]pyrimidin-4-one]",1.2 µM,0.41 nM,1.9e-09 M,1.4e-08 M
"Cn1cc(C(=O)C2CCN(C(=O)CCCc3nc4c(c(=O)[nH]3)CCCC4)CC2)cn1 [Compound C230, 2-{4-[4-(1-Methyl-1H-pyrazole-4-carbonyl)-piperidin-1-yl]-4-oxo-butyl}-5,6,7,8-tetrahydro-3H-quinazolin-4-one]",1.8 µM,5.1 nM,2.1e-09 M,4.7e-08 M

# From patent US9809598B2 (Merck Patent GmbH, priority 2014, dated 2017)
